Data taken from US5034390A, “Pyridyl-and pyrmidyl-piperazines useful for the treatment of mental disorders” (Pharmacia AB, priority 1988, dated 1991).
Structures can show the parent of a compound that is named as a salt.

How the values were obtained:
[1] = target: T1, 5-HT2 receptors (Rattus norvegicus, UniProt P14842); test: Affinity to 5-HT2 receptors (3H-ketanserine binding assay, Leysen et al.); details: 3H-ketanserine as ligand
T1 construct: from tissue
Method: The binding assay is carried out essentially as described by Leysen et al. (Mol. Pharmacol. 21, 301-14, 1982) using ^3 H-ketanserine as ligand.

[2] = combined 5-HT2/D2 affinity; cited from earlier work

T1 sequence (P14842 whole entry): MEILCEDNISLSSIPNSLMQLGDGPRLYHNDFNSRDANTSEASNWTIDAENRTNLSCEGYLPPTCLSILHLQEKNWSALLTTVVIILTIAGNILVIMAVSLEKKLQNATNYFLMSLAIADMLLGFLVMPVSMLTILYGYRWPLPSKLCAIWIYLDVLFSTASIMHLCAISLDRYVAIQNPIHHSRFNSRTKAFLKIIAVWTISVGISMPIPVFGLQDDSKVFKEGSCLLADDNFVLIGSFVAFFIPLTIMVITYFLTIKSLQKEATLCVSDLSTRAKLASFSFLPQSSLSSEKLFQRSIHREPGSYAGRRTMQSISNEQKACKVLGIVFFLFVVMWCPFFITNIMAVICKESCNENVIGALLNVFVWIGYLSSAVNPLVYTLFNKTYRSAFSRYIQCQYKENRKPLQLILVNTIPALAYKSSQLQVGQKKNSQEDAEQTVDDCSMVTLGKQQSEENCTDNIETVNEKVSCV

| Compound | Ki [1] [nM] | antipsychotic effect / extrapyramidal side-effects [2] |
| --- | --- | --- |
| Fc1ccc(CCCCN2CCN(c3cccc(Cl)n3)CC2)cc1 [2:9, 4-/4-(p-fluorophenyl)butyl/-1-/6-chloro-2-pyridyl/piperazine hydrochloride] | 7 | – |
| COc1cccc(N2CCN(CCCOc3ccc(F)cc3)CC2)n1 [2:10, 4-/3-(p-fluorophenoxy)propyl/-1-/6-methoxy-2-pyridyl/piperazine fumarate] | 11 | – |
| NC(=O)c1cccnc1N1CCN(CCCSc2ccc(F)cc2)CC1 [2:19, 4-/3-(p-fluorothiophenoxy)propyl/-1-/3-carbamyl-2-pyridyl/piperazine dihydrochloride] | 7 | – |
| CN1CCN(C2=Nc3cc(Cl)ccc3Nc3ccccc32)CC1 [clozapine] | – | antipsychotic effect with a low degree of extrapyramidal side-effects |
